Experimental data taken from paper PMC7029560, “Functional characterization of acyl-CoA binding protein in Neospora caninum” (Parasites & Vectors, 2020).

Target: T1, NcACBP (rNcACBP-GST) (Neospora caninum, UniProt F0VR91)
T1 construct: gene NCLIV_066640
T1 sequence (F0VR91 1-95): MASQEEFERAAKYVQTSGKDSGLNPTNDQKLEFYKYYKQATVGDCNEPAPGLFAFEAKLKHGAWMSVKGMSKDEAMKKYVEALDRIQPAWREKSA
Assay: fluorescence binding assay (SpectraMax M5, […] nm)
Details: 1 uM GST-fusion protein, 0-0.3 uM ligand, PBS, room temperature, 5 min; labelled compound

NBD-C16:0-CoA was tested, and the Kd was 11.7 nM.
